Source: ChEMBL document CHEMBL6134930, “Discovery of AB801, a Potent and Selective Inhibitor of AXL Receptor Tyrosine Kinase for Use in Cancer Therapy” (J Med Chem, 2025)
The source made the active and inactive calls. The calls are words filed in the database; no cut-off is given here.

Assays:
[1] = target: CYP2C9 (Homo sapiens, UniProt P11712); assay: Time dependent inhibition of CYP2C9 (unknown origin) at 30 uM measured after 30 mins relative to control; type: ADME; settings: read-out: TDI
[2] = target: Cytochrome P450 3A4 (Homo sapiens, UniProt P08684); assay: Inhibition of CYP3A4 (unknown origin) using testosterone as substrate measured after 30 mins; type: ADME
[3] = Selectivity ratio, ratio of Ki for MERTK (unknown origin) to Ki for AXL (unknown origin)
[4] = target: CYP2C19 (Homo sapiens, UniProt P33261); assay: Time dependent inhibition of CYP2C19 (unknown origin) at 30 uM measured after 30 mins relative to control; type: ADME; settings: read-out: TDI
[5] = Clearance in CD-1 mouse at 0.5 mg/kg, iv measured up to 24 hrs by LC-MS/MS analysis; type: ADME, organism-based; settings: in vivo
[6] = Half life in human (healthy individuals) at 10 mg, single oral dose; type: ADME; settings: in vivo
[7] = AUC (0 to 120 hrs) in human (healthy individuals) at 270 mg, single oral dose; type: ADME; settings: in vivo
[8] = target: T1, Cytochrome P450 2C8 (Homo sapiens, UniProt P10632); assay: Inhibition of CYP2C8 (unknown origin) measured after 30 mins; type: ADME
T1 sequence (P10632 whole entry): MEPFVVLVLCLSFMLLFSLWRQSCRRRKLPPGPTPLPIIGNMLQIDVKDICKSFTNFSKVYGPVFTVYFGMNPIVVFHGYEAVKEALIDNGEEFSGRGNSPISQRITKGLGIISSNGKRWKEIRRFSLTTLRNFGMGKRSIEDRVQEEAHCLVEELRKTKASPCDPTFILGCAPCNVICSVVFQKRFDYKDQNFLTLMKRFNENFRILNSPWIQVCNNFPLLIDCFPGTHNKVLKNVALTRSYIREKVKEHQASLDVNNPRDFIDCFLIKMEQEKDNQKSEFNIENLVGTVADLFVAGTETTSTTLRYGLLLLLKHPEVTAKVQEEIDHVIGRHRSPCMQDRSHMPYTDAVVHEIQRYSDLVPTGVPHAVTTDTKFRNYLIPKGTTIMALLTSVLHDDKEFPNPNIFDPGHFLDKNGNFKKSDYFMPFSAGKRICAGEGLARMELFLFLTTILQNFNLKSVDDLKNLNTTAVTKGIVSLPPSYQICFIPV

[9] = AUC (0 to 24 hrs) in human (healthy individuals) at 30 mg, single oral dose; type: ADME; settings: in vivo
[10] = Tmax in human (healthy individuals) at 90 mg, single oral dose; type: ADME; settings: in vivo
[11] = Metabolic stability in human hepatocytes assessed as intrinsic clearance measured per 10^6 cells; type: ADME, cell-based, Hepatocyte; settings: read-out: CLH
[12] = Cmax in human (healthy individuals) at 270 mg, single oral dose measured uo to 120 hrs; type: ADME; settings: in vivo
[13] = Selectivity ratio, ratio of Ki for DRAK1 (unknown origin) to Ki for AXL (unknown origin)
[14] = Clearance in cynomolgus monkey at 0.5 mg/kg, iv measured up to 24 hrs by LC-MS/MS analysis; type: ADME, organism-based, Macaca fascicularis; settings: in vivo
[15] = Cmax in human (healthy individuals) at 90 mg, single oral dose measured uo to 120 hrs; type: ADME; settings: in vivo
[16] = target: T2, CYP1A2 (Homo sapiens, UniProt P05177); assay: Time dependent inhibition of CYP1A2 (unknown origin) at 30 uM measured after 30 mins relative to control; type: ADME; settings: read-out: TDI
T2 sequence (P05177 whole entry): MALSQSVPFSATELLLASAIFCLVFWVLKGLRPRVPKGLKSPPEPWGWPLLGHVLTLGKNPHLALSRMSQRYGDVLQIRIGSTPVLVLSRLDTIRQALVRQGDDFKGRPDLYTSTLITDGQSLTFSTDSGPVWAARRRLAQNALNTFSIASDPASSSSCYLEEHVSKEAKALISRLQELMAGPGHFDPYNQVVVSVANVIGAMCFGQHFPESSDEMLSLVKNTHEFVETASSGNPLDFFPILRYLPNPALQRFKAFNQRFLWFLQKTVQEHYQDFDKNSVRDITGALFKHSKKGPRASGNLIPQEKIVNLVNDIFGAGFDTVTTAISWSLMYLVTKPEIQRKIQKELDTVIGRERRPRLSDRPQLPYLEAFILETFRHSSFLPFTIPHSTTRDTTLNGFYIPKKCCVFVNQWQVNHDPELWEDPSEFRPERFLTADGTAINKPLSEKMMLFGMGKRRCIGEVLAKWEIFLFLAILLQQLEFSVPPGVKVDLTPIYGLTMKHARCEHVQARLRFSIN

[17] = Clearance in Beagle dog at 0.5 mg/kg, iv measured up to 24 hrs by LC-MS/MS analysis; type: ADME, organism-based, Canis lupus familiaris; settings: in vivo
[18] = test system: 786-0; assay: Anti-tumor activity against human 786-0 cells xenografted in mouse model assessed as increase in soluble AXL level in plasma at 30 mg/kg, po once daily for 15 days; type: functional, organism-based; settings: time 15.0 day
[19] = target: T3, CYP3A4 (Homo sapiens, UniProt P08684); assay: Time dependent inhibition of CYP3A4 (unknown origin) using testosterone as substrate at 30 uM measured after 30 mins relative to control; type: ADME; settings: probe testosterone, read-out: TDI
[20] = Half life in human (healthy individuals) at 30 mg, single oral dose; type: ADME; settings: in vivo
[21] = test system: 786-0; assay: Anti-tumor activity against human 786-0 cells xenografted in mouse model assessed as tumor growth inhibition in presence of sunitinib at 10 mg/kg, po once daily for 15 days; type: functional, organism-based; settings: time 15.0 day
[22] = AUC (0 to 120 hrs) in human (healthy individuals) at 90 mg, single oral dose; type: ADME; settings: in vivo
[23] = Half life in human (healthy individuals) at 270 mg, single oral dose; type: ADME; settings: in vivo
[24] = Tmax in human (healthy individuals) at 30 mg, single oral dose; type: ADME; settings: in vivo
[25] = target: T3, CYP3A4; assay: Time dependent inhibition of CYP3A4 (unknown origin) using midazolam as substrate at 30 uM measured after 30 mins relative to control; type: ADME; settings: probe midazolam, read-out: TDI
[26] = Metabolic stability in rat hepatocytes assessed as intrinsic clearance measured per 10^6 cells; type: ADME, cell-based, Hepatocyte; settings: read-out: CLH
[27] = target: Cytochrome P450 2D6 (Homo sapiens, UniProt P10635); assay: Inhibition of CYP2D6 (unknown origin) measured after 30 mins; type: ADME
[28] = target: T4, CYP2C8 (Homo sapiens, UniProt P10632); assay: Time dependent inhibition of CYP2C8 (unknown origin) at 30 uM measured after 30 mins relative to control; type: ADME; settings: read-out: TDI
T4 sequence (P10632 whole entry): T1 sequence (P10632 whole entry)

[29] = Apparent permeability of compound from apical to basolateral side in human Caco-2 cells; type: ADME, cell-based; settings: read-out: permeability
[30] = target: Cytochrome P450 2C19 (Homo sapiens, UniProt P33261); assay: Inhibition of CYP2C19 (unknown origin) measured after 30 mins; type: ADME
[31] = test system: 786-0; assay: Anti-tumor activity against human 786-0 cells xenografted in mouse model assessed as tumor growth inhibition in presence of sunitinib at 30 mg/kg, po once daily for 15 days; type: functional, organism-based; settings: time 15.0 day
[32] = AUC (0 to 120 hrs) in human (healthy individuals) at 10 mg, single oral dose; type: ADME; settings: in vivo
[33] = Toxicity in mouse xenografted with human 786-0 cells assessed as body weight in presence of sunitinib at 30 mg/kg, po once daily for 15 days; type: organism-based; settings: in vivo, 360 h, time 15 day

T3 sequence (P08684 whole entry): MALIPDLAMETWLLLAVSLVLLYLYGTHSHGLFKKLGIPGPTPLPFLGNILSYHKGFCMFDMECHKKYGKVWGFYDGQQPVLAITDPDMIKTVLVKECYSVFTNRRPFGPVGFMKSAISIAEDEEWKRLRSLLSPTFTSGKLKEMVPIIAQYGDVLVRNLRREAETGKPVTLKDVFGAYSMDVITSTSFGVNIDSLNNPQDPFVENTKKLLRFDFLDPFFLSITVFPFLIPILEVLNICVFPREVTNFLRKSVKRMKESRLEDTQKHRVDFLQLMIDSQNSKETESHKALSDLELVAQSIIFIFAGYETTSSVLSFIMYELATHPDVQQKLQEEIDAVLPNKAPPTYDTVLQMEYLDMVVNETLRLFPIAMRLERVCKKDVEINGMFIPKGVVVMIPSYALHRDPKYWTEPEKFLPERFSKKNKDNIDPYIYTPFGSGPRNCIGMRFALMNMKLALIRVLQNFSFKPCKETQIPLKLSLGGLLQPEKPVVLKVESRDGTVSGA
Cytochrome P450 3A4, sequence (P08684 whole entry): as above
CYP2C9, sequence (P11712 whole entry): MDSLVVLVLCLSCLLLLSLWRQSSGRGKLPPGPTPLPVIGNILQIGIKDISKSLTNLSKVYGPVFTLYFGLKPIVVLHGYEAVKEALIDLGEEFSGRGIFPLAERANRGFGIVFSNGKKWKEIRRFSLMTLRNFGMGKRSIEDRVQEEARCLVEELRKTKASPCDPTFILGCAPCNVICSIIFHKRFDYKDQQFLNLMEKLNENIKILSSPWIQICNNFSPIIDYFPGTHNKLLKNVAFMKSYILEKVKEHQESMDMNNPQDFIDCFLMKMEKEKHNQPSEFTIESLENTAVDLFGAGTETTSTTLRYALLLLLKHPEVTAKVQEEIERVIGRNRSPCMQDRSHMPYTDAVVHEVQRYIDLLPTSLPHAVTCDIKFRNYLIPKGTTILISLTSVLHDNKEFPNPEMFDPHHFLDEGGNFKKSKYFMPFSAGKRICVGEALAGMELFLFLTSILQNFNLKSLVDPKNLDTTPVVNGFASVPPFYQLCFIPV
Cytochrome P450 2C19, sequence (P33261 whole entry): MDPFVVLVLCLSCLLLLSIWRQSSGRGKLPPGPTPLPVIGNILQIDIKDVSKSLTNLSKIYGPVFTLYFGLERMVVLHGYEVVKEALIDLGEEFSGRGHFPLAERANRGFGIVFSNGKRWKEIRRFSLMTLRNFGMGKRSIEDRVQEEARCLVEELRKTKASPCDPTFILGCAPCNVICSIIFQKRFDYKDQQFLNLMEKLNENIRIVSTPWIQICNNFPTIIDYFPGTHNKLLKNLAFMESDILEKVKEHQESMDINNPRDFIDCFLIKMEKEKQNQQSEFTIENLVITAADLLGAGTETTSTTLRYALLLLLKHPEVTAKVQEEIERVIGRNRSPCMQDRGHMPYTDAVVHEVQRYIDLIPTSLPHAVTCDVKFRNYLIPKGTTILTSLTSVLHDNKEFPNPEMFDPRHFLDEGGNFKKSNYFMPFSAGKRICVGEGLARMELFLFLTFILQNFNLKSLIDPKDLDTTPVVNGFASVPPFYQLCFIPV
CYP2C19, sequence (P33261 whole entry): as above
Cytochrome P450 2D6, sequence (P10635 whole entry): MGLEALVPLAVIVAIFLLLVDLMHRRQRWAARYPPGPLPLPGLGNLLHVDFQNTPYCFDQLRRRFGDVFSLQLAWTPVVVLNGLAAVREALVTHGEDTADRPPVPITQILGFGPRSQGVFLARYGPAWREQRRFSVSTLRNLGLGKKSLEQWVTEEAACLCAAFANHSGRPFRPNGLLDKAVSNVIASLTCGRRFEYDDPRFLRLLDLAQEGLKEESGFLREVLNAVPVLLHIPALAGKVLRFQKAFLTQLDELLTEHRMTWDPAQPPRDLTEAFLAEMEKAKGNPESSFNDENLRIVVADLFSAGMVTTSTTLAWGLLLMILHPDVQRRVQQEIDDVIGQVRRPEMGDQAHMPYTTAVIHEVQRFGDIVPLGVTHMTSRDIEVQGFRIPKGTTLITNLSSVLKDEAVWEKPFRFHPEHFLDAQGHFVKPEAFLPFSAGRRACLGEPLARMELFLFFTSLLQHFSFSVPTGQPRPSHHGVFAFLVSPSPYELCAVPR

Which inhibition at 0.5 h, 30 µM [1] does the source give for `Cc1cccnc1-c1ccc(-c2n[nH]c3ncc(-c4ccc5c(c4)CC[C@@H](N4C6COCC4C6)CC5)cc23)nc1` here?
The inhibition at 0.5 h, 30 µM was 10%.

What about the IC50 [2] of the same molecule?
The IC50 was 5.6 µM.

What about the Ratio Ki [3] of the same molecule?
Its Ratio Ki is 880.

What about the inhibition at 0.5 h, 30 µM [4] of the same molecule?
Its inhibition at 0.5 h, 30 µM is 4.1%.

And the clearance [5]?
The clearance was 8.83 mL/min/kg.

And the half-life [6]?
Its half-life is 70 h.

And the AUC(0-t) [7]?
The AUC(0-t) was 7490 ng·h/mL.

And the IC50 [8]?
The IC50 was 17 µM.

And the AUC(0-t) [9]?
The AUC(0-t) was 189 ng·h/mL.

What about the Tmax [10] of the same molecule?
The Tmax was 8 h.

And the hepatocyte CLint [11]?
Its hepatocyte CLint is 1.8 µL/min/1e6 cells.

And the Cmax [12]?
Its Cmax is 153 ng/mL.

What about the Ratio Ki [13] of the same molecule?
The Ratio Ki was 47.

And the clearance [14]?
The clearance was 12.7 mL/min/kg.

And the Cmax [15]?
Its Cmax is 40 ng/mL.

And the inhibition at 0.5 h, 30 µM [16]?
The inhibition at 0.5 h, 30 µM was 0%.

What about the clearance [17] of the same molecule?
The clearance was 25 mL/min/kg.

What about the Activity [18] of the same molecule?
Its Activity is “Active”.

And the inhibition at 0.5 h, 30 µM [19]?
The inhibition at 0.5 h, 30 µM was 16%.

What about the half-life [20] of the same molecule?
Its half-life is 72 h.

And the Activity [21]?
Its Activity is “Active”.

And the AUC(0-t) [22]?
The AUC(0-t) was 2090 ng·h/mL.

And the half-life [23]?
The half-life was 40 h.

And the Tmax [24]?
The Tmax was 8 h.

And the inhibition at 0.5 h, 30 µM [25]?
The inhibition at 0.5 h, 30 µM was 16%.

What about the hepatocyte CLint [26] of the same molecule?
The hepatocyte CLint was 20 µL/min/1e6 cells.

What about the IC50 [27] of the same molecule?
The IC50 was 11 µM.

What about the inhibition at 0.5 h, 30 µM [28] of the same molecule?
Its inhibition at 0.5 h, 30 µM is 0%.

And the Papp A→B [29]?
Its Papp A→B is 1.7 ×10⁻⁶ cm/s.

What about the IC50 [30] of the same molecule?
The IC50 was 17 µM.

What about the Activity [31] of the same molecule?
Its Activity is “Active”.

And the AUC(0-t) [32]?
The AUC(0-t) was 180 ng·h/mL.

And the Activity [33]?
The Activity was “Non-toxic”.
